From publication PMC6155662, “Trypanocidal Activity of Quinoxaline 1,4 Di-N-oxide Derivatives as Trypanothione Reductase Inhibitors” (Molecules : A Journal of Synthetic Chemistry and Natural …, 2017)
Like-named read-outs stand apart in the source and are kept apart here.

How the values were obtained:
[1] = tested on: T. cruzi INC-5 epimastigotes; assay: Viability (MTT) assay on T. cruzi epimastigotes; format: cell-based, Trypanosoma cruzi; conditions: 24 h, mean and SD of triplicate
Protocol: In this study, two strains of T. cruzi isolated in Mexico were used. […] Epimastigotes were cultured in vitro in liver infusion-tryptose (LIT) medium supplemented with 10% heat inactivated fetal bovine serum (FBS) (Gibco) and 100 U/mL penicillin-streptomycin (In vitro S.A.), and incubated at 27 °C. CD1 mice, aged 6–8 weeks, were infected with T. cruzi to obtain bloodstream trypomastigote samples.
Viability assays of T. cruzi epimastigotes using 3-(4,5-dimethylthiazol-2-yl)-2,5-diphenyltetrazolium bromide (MTT) were performed. Briefly, the parasites were harvested during the exponential growth phase for a period of five days. In a 96-well microplate 1x10^6 epimastigotes were deposited in brain-heart infusion (BHI) medium supplemented with 10% FBS and 100 U/mL antibiotic-antifungal mixture (Gibco). […] Each well reached a final volume of 100 µL. Each condition was assessed in triplicate. The microplate was incubated for 24 h at 27 °C in darkness. Afterwards, 10 μL of a 5 mg/mL MTT solution was added and the plate was incubated for 20 h at 27 °C. Then 200 μL of 10% dodecyl sulfate (SDS)/0.1% HCl solution was added to dissolve formazan salts; the plate was incubated an additional 4 h. Finally, the plate was read at 570 nm in a spectrophotometer (Multiskan EX Thermo Electron, Taipei, Taiwan). The amount of viable cells was proportional to the amount of formazan produced. […] Later the results were converted to micromolar units. […] As a […] control, parasites were incubated only in culture medium with a 1% DMSO concentration, corresponding to the highest sample dilution of DMSO [34, 35, 36].

[2] = Cytotoxicity assay (Alamar Blue) on macrophages; format: cell-based, murine; conditions: mouse, J774A.1 macrophages, mean and SD of triplicate
Protocol: The murine macrophage cell line J774.A1 was maintained in culture flasks with RPMI 1640 medium supplemented with 10% FBS, 1% MEM-NEAA medium (Gibco) and 100 U/mL antibiotic-antifungal mixture (Gibco). Cells were incubated at 37 °C with 5% CO2 and humidity. Trypsinized J774.A1 macrophages were washed and viability was assessed by the trypan blue dye (Sigma-Aldrich, Toluca, Edo de Mexico, Mexico) exclusion assay. In a 96-well microplate, 50,000 macrophages were seeded per well and a dose-response assay was performed. Compounds were evaluated using six-fold serial dilutions ranging from 100 µg/mL to 0.3 µg/mL of final concentration. Each compound was tested in triplicate. After 20 h incubation, Alamar Blue was added (10% v/v) and cells were incubated for an additional 4 h period. Results were obtained as previously described and CC50 was calculated. As a negative control of cytotoxicity, cells were incubated only in the presence of 0.1% DMSO [39, 40].

[3] = molecular target: T1, recombinant T. cruzi TR (Trypanosoma cruzi, UniProt P28593); assay: TR enzyme inhibition (NADPH consumption at 340 nm); format: biochemical; conditions: for inhibition at 5 µM: inhibitor 5 µM; for inhibition at 10 µM: inhibitor 10 µM; for inhibition at 20 µM: inhibitor 20 µM; for inhibition at 40 µM: inhibitor 40 µM; for inhibition at 60 µM: inhibitor 60 µM; for inhibition at 80 µM: inhibitor 80 µM, T-085 precipitates in the assay at 80 µM
T1 construct: made in house
Protocol: (§1) Trypanothione disulfide (TS2) and recombinant T. cruzi TR were prepared following published procedures. Recombinant human glutathione reductase (GR) was kindly provided by Dr. Heiner Schirmer, Heidelberg Germany. Stock solutions (5 mM) of the inhibitors were prepared in DMSO. The kinetic analyses were conducted using a Jasco V650 spectrophotometer. All enzymatic tests were performed in polystyrene optical cuvettes (10 × 4 × 45 mm). TR activity was measured at 25 °C in a total volume of 1 mL TR assay buffer (40 mM HEPES, 1 mM EDTA, pH 7.5 [47]) containing 100 μM NADPH and 5–10 mU enzyme in the absence and presence of the inhibitor. Each assay contained a total of 5% DMSO. The reaction was started by adding TS2 and NADPH consumption was followed at 340 nm.
Five compound concentrations were used ranging from 100–5 μM. All measurements were performed twice in three independent series. Enzyme activity was plotted versus increasing inhibitor concentrations. IC50 values were calculated using the four-parameter equation model 205 and the option “unlock” from the XLfit add-in (IDBS, Guildford, United Kingdom) for Excel (Microsoft Corporation, Redmond, WA, USA).
The type of inhibition and the inhibitor constants were derived from Lineweaver-Burk plot. The activity of TR was measured in the absence and presence of two to three constant concentrations of inhibitor varying the concentration of TS2 (20, 40, 60, 100 and 200 µM). The inhibitory constant Ki was calculated from the direct plot using nonlinear least-squares data fitting in Excel spreadsheet.

[4] = molecular target: T2, recombinant human glutathione reductase (GR) (Homo sapiens, UniProt P00390); assay: GR enzyme inhibition (NADPH consumption at 340 nm); format: biochemical; conditions: inhibitor 5-60 μM; 100 µM GSSG; read-out: IC50 against hGR
T2 sequence (P00390 44-522): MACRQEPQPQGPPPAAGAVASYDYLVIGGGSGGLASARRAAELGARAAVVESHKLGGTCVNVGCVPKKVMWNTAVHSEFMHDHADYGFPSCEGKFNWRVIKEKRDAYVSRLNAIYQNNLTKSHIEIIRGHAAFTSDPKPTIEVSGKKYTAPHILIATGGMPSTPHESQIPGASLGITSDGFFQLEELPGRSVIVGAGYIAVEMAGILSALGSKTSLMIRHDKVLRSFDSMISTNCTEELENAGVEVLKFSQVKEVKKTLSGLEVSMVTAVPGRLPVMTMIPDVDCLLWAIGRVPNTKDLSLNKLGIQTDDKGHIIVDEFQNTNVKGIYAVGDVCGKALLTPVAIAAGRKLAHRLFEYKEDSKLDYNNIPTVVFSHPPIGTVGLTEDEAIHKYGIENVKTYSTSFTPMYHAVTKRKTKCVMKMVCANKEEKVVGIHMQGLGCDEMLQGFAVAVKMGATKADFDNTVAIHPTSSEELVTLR
Protocol: as §1
GR activity was measured at 25 °C in a total volume of 1 mL GR assay buffer (20.5 mM KH2PO4, 26.5 mM K2HPO4, 200 mM KCl, 1 mM EDTA, pH 6.9). The assays contained 100 µM NADPH and 5–10 mU GR and varying concentrations of the inhibitor. The reaction was started by adding 100 µM GSSG and the absorption decrease was followed at 340 nm.
Five compound concentrations were used ranging from 100–5 μM. […] IC50 values were calculated using the four-parameter equation model 205 and the option “unlock” from the XLfit add-in (IDBS, Guildford, United Kingdom) for Excel (Microsoft Corporation, Redmond, WA, USA).

[5] = 40 µM TS2, read-out: % Inhibition of TR at 40 µM [TS2]
[6] = 100 µM TS2, read-out: % Inhibition of TR at 100 µM [TS2]

T1 sequence (P28593 whole entry): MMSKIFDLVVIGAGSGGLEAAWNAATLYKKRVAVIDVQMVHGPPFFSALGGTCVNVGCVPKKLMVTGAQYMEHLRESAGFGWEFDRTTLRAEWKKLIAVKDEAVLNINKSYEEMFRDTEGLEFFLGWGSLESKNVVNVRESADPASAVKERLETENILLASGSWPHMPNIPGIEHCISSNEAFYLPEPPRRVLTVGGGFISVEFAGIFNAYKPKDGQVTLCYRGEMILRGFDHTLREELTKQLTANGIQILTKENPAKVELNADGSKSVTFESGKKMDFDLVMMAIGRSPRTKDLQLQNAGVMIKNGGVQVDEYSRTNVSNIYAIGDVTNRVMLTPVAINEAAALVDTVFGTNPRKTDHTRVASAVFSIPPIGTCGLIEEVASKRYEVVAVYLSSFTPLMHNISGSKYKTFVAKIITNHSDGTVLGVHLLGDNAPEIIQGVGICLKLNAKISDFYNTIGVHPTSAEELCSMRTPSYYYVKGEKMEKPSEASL

CC(C)OC(=O)c1ccc2c(c1)[n+]([O-])c(C(=O)C(C)C)c(C(F)(F)F)[n+]2[O-] [Compound T-085, Isopropyl 2-isobutyryl-3-trifluoromethylquinoxaline-7-carboxylate 1,4-di-N-oxide]
IC50 [1]: 2.42 ± 0.5 µM
IC50 ([1]; Trypanosoma cruzi): < 2.5 µM
CC50 at 24 h [2]: 10.4 ± 0.8 µM
type of inhibition ([3]; TcTR, Lineweaver-Burk plot): non-competitive inhibitor
Ki ([3]; TcTR, Lineweaver-Burk plot, inhibitor 15 and 50 µM, TS2 20-200 µM): 35 µM
inhibition at 5 µM [3, 5]: 20.3%
inhibition at 5 µM [3, 6]: 15.2%
inhibition at 10 µM [3, 5]: 34.1%
inhibition at 10 µM [3, 6]: 24.7%
inhibition at 20 µM [3, 5]: 45.7%
inhibition at 20 µM [3, 6]: 36.1%
inhibition at 40 µM [3, 5]: 55.1%
inhibition at 40 µM [3, 6]: 48.1%
inhibition at 60 µM ([3]; the highest concentration that could be measured, 100 μM or 40 μM TS2, read-out: % inhibition of TR): 60%
inhibition at 60 µM [3, 5]: 60.9%
inhibition at 60 µM [3, 6]: 60.1%
inhibition at 80 µM [3, 5]: 44%
inhibition at 80 µM [3, 6]: 33%
IC50 ([3]; inhibitor 5-60 μM, read-out: IC50 against TcTR): 50 µM
IC50 [4]: 50 µM
